Test [1] has as its target T1, Melatonin receptor type 1A (Homo sapiens, UniProt P48039). Put plainly: Displacement of [125I]iodomelatonin from human cloned MT1 receptor expressed in […] NIH3T3 cells after 90 mins. In kind it is cell-based.
Test [2] has as its target T2, Melatonin receptor type 1B (Homo sapiens, UniProt P49286).
T2 sequence (P49286 whole entry): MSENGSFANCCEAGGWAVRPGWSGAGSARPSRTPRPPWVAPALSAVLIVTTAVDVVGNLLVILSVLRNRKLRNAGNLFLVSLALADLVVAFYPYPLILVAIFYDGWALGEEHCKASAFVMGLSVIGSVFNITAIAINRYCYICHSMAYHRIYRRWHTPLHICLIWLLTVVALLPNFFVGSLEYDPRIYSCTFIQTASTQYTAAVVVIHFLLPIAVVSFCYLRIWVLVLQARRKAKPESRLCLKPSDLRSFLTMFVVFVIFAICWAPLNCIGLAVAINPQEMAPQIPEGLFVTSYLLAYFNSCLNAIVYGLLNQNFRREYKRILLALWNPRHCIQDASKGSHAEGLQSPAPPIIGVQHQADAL
As to the kind of experiment: Displacement of [125I]iodomelatonin from human cloned MT2 receptor expressed in […] NIH3T3 cells after 90 mins. In kind it is cell-based. In general terms: Displacement assays read how much labelled ligand stays bound in the presence of the test substance.

The target of test [3] is T1, Melatonin receptor type 1A. As to the kind of experiment: Intrinsic activity at human cloned MT1 receptor expressed in […] NIH3T3 cells assessed as increase of [35S]GTPgammaS binding relative to melatonin. In kind it is functional, cell-based. For orientation: Binding of GTPγS marks nucleotide exchange on a G protein.
Test [4] deals with T3, Melatonin receptor type 1B (Homo sapiens) (UniProt P49286).
T3 sequence (whole entry): T2 sequence (P49286 whole entry)
Put plainly: Intrinsic activity at human cloned MT2 receptor expressed in […] NIH3T3 cells assessed as increase of [35S]GTPgammaS binding relative to melatonin. In kind it is functional, cell-based.

T1 sequence (P48039 whole entry): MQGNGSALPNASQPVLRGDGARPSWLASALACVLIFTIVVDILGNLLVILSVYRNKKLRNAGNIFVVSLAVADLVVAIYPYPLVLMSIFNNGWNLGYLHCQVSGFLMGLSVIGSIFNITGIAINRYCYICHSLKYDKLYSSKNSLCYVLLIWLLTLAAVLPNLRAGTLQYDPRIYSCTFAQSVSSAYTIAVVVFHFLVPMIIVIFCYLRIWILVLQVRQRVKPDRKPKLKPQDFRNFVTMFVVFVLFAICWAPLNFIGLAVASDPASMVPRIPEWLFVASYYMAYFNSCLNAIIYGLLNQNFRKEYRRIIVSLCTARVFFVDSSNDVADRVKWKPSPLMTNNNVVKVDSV

Turning to `CC(=O)NC(C)CSc1ccccc1` (stereo unspecified), the Ki (usually a dissociation constant, usually derived from enzyme kinetics or from competition with a known ligand) in test [1] is 31600 nM; in test [2], 6760 nM. The Ratio in test [3] stood at 0; in test [4] it was 0.2.
Turning to `COc1cccc(S[C@H](C)CNC(C)=O)c1`, the Ki in test [1] was 2750 nM; in test [2], 661 nM.
With `CC(=O)N[C@@H](C)CSc1ccccc1`, the Ki in test [1] was 3720 nM; in test [2] it was 4370 nM. Besides, the results for the Ratio in test [3] and in test [4] were -0.07 and 0.25, respectively.
In the same order, the values of `CC(=O)NCCOc1ccccc1` are 11500 nM, 5500 nM, 0.31 and 0.5.
Consider `COc1cccc(SC(C)CNC(C)=O)c1` (stereo unspecified), for which the Ki is 110 nM in test [1] and 263 nM in test [2].
As for `COc1cccc(S[C@@H](C)CNC(C)=O)c1`, the Ki in test [1] is 5.75 nM; in test [2], 7.08 nM.
`CCCC(=O)NCC(C)Sc1cccc(OC)c1` (stereo unspecified): the results for the Ki in test [1] and in test [2] were 9.12 nM and 5.01 nM, respectively. Moreover, the results for the Ratio in test [3] and in test [4] were 1.02 and 0.99, respectively.
For `COc1ccc(OCCNC(C)=O)cc1` the same measures were 61700 nM, 45700 nM, 0.26 and 0.44.
`COc1cccc(OC(C)CNC(=O)C2CC2)c1` (stereo unspecified): the Ki was 0.933 nM in test [1] and 12.9 nM in test [2]. Further, the Ratio was found to be 0.91 in test [3] and 1.02 in test [4].
For `COc1cccc(S[C@@H](C)CNC(=O)C2CC2)c1` the same measures were 5.37 nM, 6.76 nM, 0.8 and 0.8.
In the same order, the values of `COc1cccc(OC[C@@H](C)NC(C)=O)c1` are 36300 nM, 4900 nM, 0.35 and 0.43.
Turning to `COc1cccc(SC[C@H](C)NC(C)=O)c1`, the Ki in test [1] was 479 nM; in test [2] it was 263 nM. The figures for the Ratio in test [3] and in test [4] were 0.3 and 0.5, respectively.
Consider `COc1ccc(OC(C)CNC(C)=O)cc1` (stereo unspecified), for which the Ki in test [1] was 42700 nM; in test [2], 12600 nM. The Ratio in test [3] stood at 0.15; in test [4], 0.13.
For the compound `COc1cccc(SCCNC(C)=O)c1`, the Ki in test [1] is 55 nM; in test [2], 39.8 nM. Besides, the values for the Ratio in test [3] and in test [4] were 0.85 and 0.81, respectively.
Take `COc1ccccc1OC(C)CNC(C)=O` (stereo unspecified): the Ki in test [1] was 10500 nM; in test [2] it was 5130 nM. Besides, the Ratio in test [3] was 0.19; in test [4] it was 0.45.
For `COc1ccccc1SCCNC(C)=O` the same measures were 3630 nM, 501 nM, 0.27 and 0.56.
For the compound `CCCC(=O)NC[C@H](C)Sc1cccc(OC)c1`, the Ki is 3.89 nM in test [1] and 6.03 nM in test [2]. Besides, the Ratio in test [3] amounted to 0.99; in test [4], 0.96.
Turning to `CCCC(=O)NCC(C)Oc1cccc(OC)c1` (stereo unspecified), the Ki in test [1] was 4.17 nM; in test [2], 3.72 nM. Besides, the Ratio in test [3] is 1.04; in test [4], 1.12.
As to `CC(=O)N[C@@H](C)COc1ccccc1`, the Ki in test [1] is 20900 nM; in test [2] it was 4570 nM. For the same compound, the Ratio in test [3] worked out at 0.05; in test [4] it was 0.26.
Consider `COc1cccc(O[C@@H](C)CNC(=O)C2CC2)c1`, for which the Ki in test [1] was 0.724 nM; in test [2], 4.37 nM. Moreover, the Ratio in test [3] is 1.01; in test [4] it was 1.26.
As to `COc1ccccc1OCCNC(C)=O`, the Ki in test [1] is 37200 nM; in test [2] it was 6610 nM. Moreover, the Ratio worked out at 0.23 in test [3] and 0.22 in test [4].
For `CCCC(=O)NC[C@@H](C)Sc1cccc(OC)c1` the same measures were 70.8 nM, 26.3 nM, 0.59 and 0.64.
For `COc1cccc(OCCNC(C)=O)c1` the same measures were 40.7 nM, 67.6 nM, 0.81 and 0.8.
Regarding `CC(=O)NCC(C)Oc1ccccc1` (stereo unspecified), the Ki in test [1] is 1380 nM; in test [2], 1150 nM. For the same compound, the Ratio in test [3] came out at 0.48; in test [4] it was 0.69.
For the compound `CC(=O)N[C@H](C)COc1ccccc1`, the Ki in test [1] is 63100 nM; in test [2], 53700 nM. Further, the figures for the Ratio in test [3] and in test [4] were 0.17 and 0.11, respectively.
For `COc1cccc(O[C@H](C)CNC(C)=O)c1` the same measures were 49 nM, 110 nM, 0.79 and 0.93.
For `COc1cccc(O[C@@H](C)CNC(C)=O)c1` the same measures were 1.7 nM, 4.68 nM, 1.01 and 1.09.
With `COc1cccc(OCC(C)NC(C)=O)c1` (stereo unspecified), the Ki in test [1] is 355 nM; in test [2], 347 nM. In addition, the figures for the Ratio in test [3] and in test [4] were 0.63 and 0.71, respectively.
Turning to `COc1cccc(SC[C@@H](C)NC(C)=O)c1`, the Ki in test [1] was 11500 nM; in test [2] it was 12300 nM. Moreover, the Ratio in test [3] worked out at 0.29; in test [4], 0.32.
Regarding `COc1cccc(OC(C)CNC(C)=O)c1` (stereo unspecified), the inhibition constant (Ki) in test [1] is 3.63 nM; in test [2], 9.55 nM. Moreover, the Ratio in test [3] and in test [4] was 1.01 throughout.
Take `COc1cccc(O[C@H](C)CNC(=O)C2CC2)c1`: the Ki in test [1] is 7.76 nM; in test [2], 20.9 nM. Further, the Ratio in test [3] was found to be 0.9; in test [4], 0.77.
As to `CC(=O)NC(C)COc1ccccc1` (stereo unspecified), the Ki was 12000 nM in test [1] and 3800 nM in test [2]. The Ratio in test [3] stood at 0.04; in test [4], 0.15.
Regarding `CC(=O)NCCSc1ccccc1`, the Ki in test [1] was 3800 nM; in test [2] it was 339 nM. For the same compound, the Ratio in test [3] came to 0.22; in test [4] it was 0.5.
For `COc1cccc(OC[C@H](C)NC(C)=O)c1` the same measures were 347 nM, 302 nM, 0.75 and 0.8.
For `CCCC(=O)NC[C@H](C)Oc1cccc(OC)c1`, the values for the Ki in test [1] and in test [2] were 3.09 nM and 2.75 nM, respectively. Moreover, the figures for the Ratio in test [3] and in test [4] were 1.01 and 1.07, respectively.
With `COc1cccc(SC(C)CNC(=O)C2CC2)c1` (stereo unspecified), the Ki is 8.51 nM in test [1] and 9.77 nM in test [2]. The Ratio is 0.77 in test [3] and 0.63 in test [4].
Take `COc1cccc(SCC(C)NC(C)=O)c1` (stereo unspecified): the Ki in test [1] is 12000 nM; in test [2] it was 1320 nM.
For the compound `COc1ccc(SCCNC(C)=O)cc1`, the Ki in test [1] was 2820 nM; in test [2] it was 2400 nM. Besides, the Ratio in test [3] came out at 0.48; in test [4], 0.56.
In the same order, the values of `COc1cccc(S[C@H](C)CNC(=O)C2CC2)c1` are 120 nM, 49 nM, 0.49 and 0.59.
Turning to `CC(=O)N[C@H](C)CSc1ccccc1`, the Ki is 74100 nM in test [1] and 64600 nM in test [2]. Moreover, the Ratio in test [3] was -0.05; in test [4], -0.04.
For `CCCC(=O)NC[C@@H](C)Oc1cccc(OC)c1` the same measures were 81.3 nM, 67.6 nM, 1.06 and 0.86.

Source of the values: ChEMBL document CHEMBL1221295 (Bioorg Med Chem, 2010).
